pKi: −log10 of the molar value. Where two headings read alike, the source gives them in different places.
Target: T1, mouseTAAR1 (Mus musculus, UniProt Q923Y8)
T1 construct: expressed in transfected cells; host or cells: HEK293 (ATCC #CRL-1573), stably transfected with pIRESneo2 expression plasmid; membrane preparation
Assay: Radioligand binding on membranes of HEK293 cells stably expressing TAAR1
Description: For the construction of expression plasmids the coding sequences of human, rat and mouse TAAR 1 were amplified from genomic DNA essentially as described by Lindemann et al.. The Expand High Fidelity PCR System (Roche Diagnostics) was used with 1.5 mM Mg^2+ and purified PCR products were cloned into pCR2.1-TOPO cloning vector (Invitrogen) following the instructions of the manufacturer. PCR products were subcloned into the pIRESneo2 vector (BD Clontech, Palo Alto, Calif.), and expression vectors were sequence verified before introduction in cell lines.
For the generation of stably transfected cell lines HEK293 cells were transfected with the pIRESneo2 expression plasmids containing the TAAR coding sequences (described above) with Lipofectamine 2000 (Invitrogen) according to the instructions of the manufacturer, and 24 hrs post transfection the culture medium was supplemented with 1 mg/ml G418 (Sigma, Buchs, Switzerland). After a culture period of about 10 d clones were isolated, expanded and tested for responsiveness to trace amines (all compounds purchased from Sigma) with the cAMP Biotrak Enzyme immunoassay (EIA) System (Amersham) following the non-acetylation EIA procedure provided by the manufacturer.
Cells at confluence were rinsed with ice-cold phosphate buffered saline without Ca^2+ and Mg^2+ containing 10 mM EDTA and pelleted by centrifugation at 1000 rpm for 5 min at 4° C. The pellet was then washed twice with ice-cold phosphate buffered saline and cell pellet was frozen immediately by immersion in liquid nitrogen and stored until use at −80° C. Cell pellet was then suspended in 20 ml HEPES-NaOH (20 mM), pH 7.4 containing 10 mM EDTA, and homogenized with a Polytron (PT 3000, Kinematica) at 10,000 rpm for 10 s. The homogenate was centrifuged at 48,000×g for 30 min at 4° C. and the pellet resuspended in 20 ml HEPES-NaOH (20 mM), pH 7.4 containing 0.1 mM EDTA (buffer A), and homogenized with a Polytron at 10,000 rpm for 10 s. The homogenate was then centrifuged at 48,000×g for 30 min at 4° C. and the pellet resuspended in 20 ml buffer A, and homogenized with a Polytron at 10,000 rpm for 10 s. Protein concentration was determined by the method of Pierce (Rockford, Ill.). The homogenate was then centrifuged at 48,000×g for 10 min at 4° C., resuspended in HEPES-NaOH (20 mM), pH 7.0 including MgCl2 (10 mM) and […] homogenized with a Polytron at 10,000 rpm for 10 s.
Binding assay was performed at 4° C. in a final volume of 1 ml, and with an incubation time of 30 min. […] Competing ligands were tested in a wide range of concentrations (10 pM-30 μM). […] Each experiment was performed in duplicate. All incubations were terminated by rapid filtration through UniFilter-96 plates (Packard Instrument Company) and glass filter GF/C, pre-soaked for at least 2 h in polyethylenimine 0.3%, and using a Filtermate 96 Cell Harvester (Packard Instrument Company). The tubes and filters were then washed 3 times with 1 ml aliquots of cold buffer B. Filters were not dried and soaked in Ultima gold (45 μl/well, Packard Instrument Company) and bound radioactivity was counted by a TopCount Microplate Scintillation Counter (Packard Instrument Company).

[1] = mouseTAAR1, competition with [3H]-rac-2-(1,2,3,4-tetrahydro-1-naphthyl)-2-imidazoline, 4° C., 30 min, read-out: Ki

T1 sequence (Q923Y8 whole entry): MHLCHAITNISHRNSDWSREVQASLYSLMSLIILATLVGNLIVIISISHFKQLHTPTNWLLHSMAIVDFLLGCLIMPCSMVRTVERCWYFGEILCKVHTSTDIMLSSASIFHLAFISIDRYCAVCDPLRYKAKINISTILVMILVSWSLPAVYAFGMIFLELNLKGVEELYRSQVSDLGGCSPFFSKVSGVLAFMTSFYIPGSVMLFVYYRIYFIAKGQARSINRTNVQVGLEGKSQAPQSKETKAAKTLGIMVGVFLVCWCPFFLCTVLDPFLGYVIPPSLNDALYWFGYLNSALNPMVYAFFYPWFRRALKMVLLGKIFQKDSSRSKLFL

| SMILES | pKi | pKi [1] |
| --- | --- | --- |
| CCC(c1cnc[nH]1)c1cccc(F)c1F (racemic) [Example 20, rac-4-[1-(2,3-Difluoro-phenyl)-propyl]-1H-imidazole] | 7.74 |  |
| Cc1cccc(Cc2c[nH]cn2)c1C [Example 25, 4-(2,3-Dimethyl-benzyl)-1H-imidazole, reference compound] |  | 7.37 |
| CCc1ccc(OC)c(CC)c1Cc1cnc[nH]1 [Example 70, 4-(2,6-Diethyl-3-methoxy-benzyl)-1H-imidazole] | 8.42 |  |
| CCc1cccc(C)c1Cc1cnc[nH]1 [Example 57, 4-(2-Ethyl-6-methyl-benzyl)-1H-imidazole] | 7.97 |  |
| Cc1cccc(C)c1Cc1cnc[nH]1 [Example 29, 4-(2,6-Dimethyl-benzyl)-1H-imidazole] | 8.40 |  |
| CCc1cccc(CC)c1Cc1cnc[nH]1 [Example 26, 4-(2,6-Diethyl-benzyl)-1H-imidazole] | 8.00 |  |
| C[C@@H](c1cnc[nH]1)c1cccc(F)c1F [Example 46, 4-[(R)-1-(2,3-Difluoro-phenyl)-ethyl]-1H-imidazole] | 8.11 |  |
| CCc1ccc(Oc2ccccc2)c(CC)c1Cc1cnc[nH]1 [Example 80, 4-(2,6-Diethyl-3-phenoxy-benzyl)-1H-imidazole] | 7.86 |  |
| CC(c1ccccc1)c1cnc[nH]1 (racemic) [Example 14, rac-4-(1-Phenyl-ethyl)-1H-imidazole] | 8.40 |  |
| CC(c1cnc[nH]1)c1cccc(F)c1F (racemic) [Example 17, rac-4-[1-(2,3-Difluoro-phenyl)-ethyl]-1H-imidazole] | 7.96 |  |
| Clc1cccc(Cl)c1Cc1cnc[nH]1 [Example 33, 4-(2,6-Dichloro-benzyl)-1H-imidazole] | 8.52 |  |
| Clc1ccc(Oc2cccc(Cc3cnc[nH]3)c2)cc1 [Example 60, 4-[3-(4-Chloro-phenoxy)-benzyl]-1H-imidazole] | 7.56 |  |
| c1ccc(-c2ccccc2Cc2cnc[nH]2)cc1 [Example 67, 4-Biphenyl-2-ylmethyl-1H-imidazole] | 7.56 |  |
| Fc1cccc(Cl)c1Cc1cnc[nH]1 [Example 12, 4-(2-Chloro-6-fluoro-benzyl)-1H-imidazole] | 7.72 |  |
| CCOc1cc(CC)c(Cc2cnc[nH]2)c(CC)c1 [Example 72, 4-(4-Ethoxy-2,6-diethyl-benzyl)-1H-imidazole] | 7.90 |  |
| CC(c1c[nH]cn1)c1cccc2ccccc12 (racemic) [Example 40, rac-4-(1-Naphthalen-1-yl-ethyl)-1H-imidazole] | 8.52 |  |
| CCc1cc(OC)cc(CC)c1Cc1cnc[nH]1 [Example 69, 4-(2,6-Diethyl-4-methoxy-benzyl)-1H-imidazole] | 8.59 |  |
| CCc1cccc(Cl)c1Cc1cnc[nH]1 [Example 61, 4-(2-Chloro-6-ethyl-benzyl)-1H-imidazole] | 7.94 |  |
| CCC(c1cnc[nH]1)c1ccccc1F (racemic) [Example 6, rac-4-[1-(2-Fluoro-phenyl)-propyl]-1H-imidazole] | 7.66 |  |
| CCc1cc(Oc2ccccc2)cc(CC)c1Cc1cnc[nH]1 [Example 79, 4-(2,6-Diethyl-4-phenoxy-benzyl)-1H-imidazole] | 8.25 |  |

| SMILES | pKi | pKi [1] |
| --- | --- | --- |
| CCc1cccc(F)c1Cc1cnc[nH]1 [Example 78, 4-(2-Ethyl-6-fluoro-benzyl)-1H-imidazole] | 7.75 |  |
| c1ccc(-c2cccc(Cc3cnc[nH]3)c2)cc1 [Example 71, 4-Biphenyl-3-ylmethyl-1H-imidazole] | 7.41 |  |
| c1cc(Cc2cnc[nH]2)c2occc2c1 [Example 51, 4-Benzofuran-7-ylmethyl-1-imidazole] | 8.03 |  |
| CCc1cccc(C2CC2)c1Cc1cnc[nH]1 [Example 58, 4-(2-Cyclopropyl-6-ethyl-benzyl)-1H-imidazole] | 8.01 |  |
| CC(C)(c1ccccc1)c1cnc[nH]1 [Example 41, 5-(1-methyl-1-phenyl-ethyl)-1H-imidazole trifluoro-acetate] | 7.34 |  |
| CC(c1cnc[nH]1)c1ccccc1F (racemic) [Example 2, rac-4-[1-(2-Fluoro-phenyl)-ethyl]-1H-imidazole] | 7.92 |  |
| CCC(c1cc(F)cc(F)c1)c1cnc[nH]1 (racemic) [Example 4, rac-4-[1-(3,5-Difluoro-phenyl)-propyl]-1H-imidazole] | 7.55 |  |
| Cc1cc(C)c(C)c(Cc2cnc[nH]2)c1C [Example 31, 4-(2,3,5,6-Tetramethyl-benzyl)-1H-imidazole] | 7.80 |  |
| Brc1ccccc1Cc1cnc[nH]1 [Example 27, 4-(2-Bromo-benzyl)-1H-imidazole] | 7.47 |  |
| CCC(c1cccc(F)c1)c1cnc[nH]1 (racemic) [Example 7, rac-4-[1-(3-Fluoro-phenyl)-propyl]-1H-imidazole] | 7.49 |  |
| CCOc1ccc(CC)c(Cc2cnc[nH]2)c1CC [Example 74, 4-(3-Ethoxy-2,6-diethyl-benzyl)-1H-imidazole] | 8.43 |  |
| CCC(c1ccccc1)c1cnc[nH]1 (racemic) [Example 5, rac-4-(1-Phenyl-propyl)-1H-imidazole] | 7.44 |  |
| CCc1cc(OCc2ccccc2)cc(CC)c1Cc1cnc[nH]1 [Example 73, 4-(4-Benzyloxy-2,6-diethyl-benzyl)-1H-imidazole] |  | 7.93 |
| Brc1cc(Cc2c[nH]cn2)c2occc2c1 [Example 49, 4-(5-Bromo-benzofuran-7-ylmethyl)-1-imidazole] | 9.05 |  |
| Cc1ccc2ccccc2c1Cc1cnc[nH]1 [Example 572, 4-(2-Methyl-naphthalen-1-ylmethyl)-1H-imidazole] | 8.25 |  |
| c1cc2c(c(Cc3cnc[nH]3)c1)OCC2 [Example 50, 4-(2,3-Dihydro-benzofuran-7-ylmethyl)-1-imidazole] | 7.69 |  |
| CCCC(c1ccccc1)c1c[nH]cn1 (racemic) [Example 1, rac-4-(1-Phenyl-butyl)-1H-imidazole] | 7.31 |  |
| c1ccc2cc(Cc3c[nH]cn3)ccc2c1 [Example 39, 4-Naphthalen-2-ylmethyl-1H-imidazole] | 7.54 |  |
| CC(c1cccc(F)c1)c1cnc[nH]1 (racemic) [Example 15, rac-4-[1-(3-Fluoro-phenyl)-ethyl]-1H-imidazole] | 7.72 |  |

Source: patent publication US8158668B2, “Methods for treating CNS disorders with 4-imidazole derivatives” (Hoffmann-La Roche Inc., priority 2006, dated 2012)
